Reference: US8173169B2, “Formulation and process for the preparation of modafinil” (Hikma Pharmaceuticals, priority 2007, dated 2012)
Several values for one entry are separate records, joined by “and”; a condition that tells them apart may be missing. Equal entries are not always repeated.

Assays:
Assay type in all cases: physicochemical
[1] = Particle size analysis by laser diffraction (Malvern Mastersizer 2000)
Description: As is appreciated by those in the art, different measurement instruments may provide different measurements of the same particles. […] Applicants have therefore performed modafinil particle size analysis using a Malvern Mastersizer 2000 (Worcestershire, UK), and a Coulter Counter (Hiac/Royco instruments, USA) and mechanical sieving methods.
Malvern Mastersizer utilizes the principle of laser diffraction particle sizing. The principle involved is that during the laser diffraction measurement, particles are passed through a focused laser beam and these particles scatter light at an angle that is inversely proportional to their size. The angular intensity of the scattered light is then measured by a series of photosensitive detectors and the map of scattering intensity versus angle is the primary source of information used to calculate the particle size.
Particle size measurements using the Hiac/Royco were generated on Modafinil particles of the present invention suspended in saturated water. For Malvern laser sizing, Modafinil particles can either be suspended in sunflower oil or sized in the dry form.
(§1) Tables 1 and 2 summarize the particle size distribution of modafinil particles B#62605008s obtained by two different sizing methods. Values are reported in microns. The term d (0.1) denotes the diameter of the largest particle found in 10% of the particles sorted in increasing order. The other four terms refer to the diameter of the largest particle found in each 50%, 85%, 90% and 95% of the particles. The term SD denotes the standard deviation and is a measure of the spread of its values and the term RSD refers to the absolute value of the coefficient variation expressed as a percentage. In Table 2 the percentage by weight of particles retained on each mesh cut is reported.

[2] = Sieve analysis of particle size distribution; conditions: by weight retained
Description: In using the Coulter Counter, particles suspended in a weak electrolyte solution are drawn through a small aperture, separating two electrodes between which an electric current flows. The voltage applied across the aperture creates a “sensing zone”. As particles pass through the aperture, they displace their own volume of electrolyte, momentarily increasing the impedance of the aperture. This change in impedance produces a pulse that is digitally processed in real time. The Coulter Principle states that the pulse is directly proportional to the tri-dimensional volume of the particle that produced it. […] Sieve sizing is one of the oldest methods used to determine particle size distributions. Samples of known weight are placed on the largest sieve in a stack of sieves of decreasing size. Upon shaking, sample fractions are caught on the respective sieve corresponding to the size of the particles.
Table 2 summarizes particle size distribution of Modafinil of the present invention measured by sieve size analysis.
as §1

[3] = Dissolution rates of modafinil prepared by different formulation processes
Description: The choice of excipient is also shown to have a significant influence on the dissolution profiles.

[4] = single trials 1-3, Malvern Mastersizer 2000

NC(=O)C[S+]([O-])C(c1ccccc1)c1ccccc1 (stereo not shown) [Modafinil B# 62605008s, Modafinil]
D (0.35) particle size (% undersize) ([1]; average of 3 trials): 267.3 microns
d (0.1) particle size (% undersize) ([1]; average of 3 trials): 161.37 microns
d (0.5) particle size (% undersize) ([1]; average of 3 trials): 322.59 microns
d (0.85) particle size (% undersize) ([1]; average of 3 trials): 506.71 microns
d (0.9) particle size (% undersize) ([1]; average of 3 trials): 557.46 microns
d (0.95) particle size (% undersize) ([1]; average of 3 trials): 631.82 microns
share of particles greater than 220 um ([1]; conclusion from two sizing methods (Tables 1 and 2)): at least 65%
D (0.35) particle size (% undersize) [1, 4]: 273.94 microns and 266.93 microns and 261.04 microns
d (0.1) particle size (% undersize) [1, 4]: 172.45 microns and 159.38 microns and 152.26 microns
d (0.5) particle size (% undersize) [1, 4]: 328.58 microns and 322.53 microns and 316.66 microns
d (0.85) particle size (% undersize) [1, 4]: 510.24 microns and 507.09 microns and 502.79 microns
d (0.9) particle size (% undersize) [1, 4]: 561.92 microns and 558.30 microns and 552.16 microns
d (0.95) particle size (% undersize) [1, 4]: 633.06 microns and 632.46 microns and 629.94 microns
% Oversize ([2]; particle size range 0-150 μm): 3.51%
% Oversize ([2]; particle size range 150-180 μm): 1.25%
% Oversize ([2]; particle size range 180-250 μm): 7.02%
% Oversize ([2]; particle size range 250-355 μm): 52.88%
% Oversize ([2]; particle size range 355-425 μm): 17.04%
% Oversize ([2]; particle size range 425-500 μm): 12.78%
% Oversize ([2]; particle size range 500-600 μm): 5.26%
% Oversize ([2]; particle size range 600-800 μm): 0.25%
% Oversize ([2]; particle size range >800 μm): 0.00%

NC(=O)C[S+]([O-])C(c1ccccc1)c1ccccc1 (stereo not shown) [Modafinil particles, Modafinil]
% Modafinil Dissolved ([3]; 5 mins): 1.80%
% Modafinil Dissolved ([3]; 10 mins): 5.19%
% Modafinil Dissolved ([3]; 15 mins): 9.73%
% Modafinil Dissolved ([3]; 20 mins): 14.31%
% Modafinil Dissolved ([3]; 30 mins): 23.19%
% Modafinil Dissolved ([3]; 40 mins): 31.25%
% Modafinil Dissolved ([3]; 60 mins): 44.09%
% Modafinil Dissolved ([3]; 90 mins): 71.42%
dissolution profile compared with PROVIGIL 200 ([3]; result in words): significantly slower
